The values that follow come from patent publication US10729810B2, “Methods, systems, and compositions for promoting bone growth” (Cayman Chemical Company, Inc., priority 2013, dated 2020).

The test deals with rat calvarial defect. The test is described as follows: Rat calvarial defect model, drug in calcium phosphate cement suspended in demineralized bone matrix putty. Conditions: 2.6 mm defect; 3 mg/ml in cement-DBM putty 1:8; eight weeks; FIG. 2. In kind it is in vivo, female Sprague Dawley rats. On the procedure:
The rat calvarial defect model is a widely used model through which the ability of a treatment agent to induce bone formation is assessed (Aghaloo et al., The effect of NELL1 and bone morphogenetic protein-2 on calvarial bone regeneration, J. Oral Maxillofac. Surg. 2010: 68:300-308; Mark et al., Repair of calvarial nonunions by osteogenin, a bone-inductive protein, Plast. Reconstr. Surg. 1990: 86:623-30).
Bone defects are created by removal of bone from the cranium of female Sprague Dawley rats by a bone trephine (cranial defect). Cranial defects are 2.6 mm in diameter and the cranium approximately 1 mm thick. A matrix of approximately 2 mm thickness is applied to the defect. Thus the dosing volume for each defect is calculated as π*r^2*matrix thickness=3.14*1.3^2*2=10.61 μl and rounded to 11 μl for purposes of dose calculation.
EXAMPLE 2C is tested at seven doses with five rats in each group. These are 3, 10, 30, 100 and 300 μg/ml and 1 and 3 mg/ml. A negative control group treated with dosing matrix containing no drug (Vehicle) as well as a positive control group treated with 50 μg/ml recombinant human bone morphogenetic protein 2 (BMP-2) are also included in the study. […]
The area measured each week is compared to that of the first week and the degree of repair calculated by the following formula: (original area−current area)/original area*100 […]

Turning to `CCC#CC[C@H](C)[C@H](O)/C=C/[C@H]1CCC(=O)N1CCCCCCC(=O)O` [2E′, 7-((R)-2-((3S,4S,E)-3-hydroxy-4-methylnon-1-en-6-yn-1-yl)-5-oxopyrrolidin-1-yl)heptanoic acid], the “Healing of a calvarial bone defect” value is given as “Accelerated Healing”.
